Laboratory results published in patent US4473578A, “β-Lactam antibiotics and their use” (Beecham Group Limited, priority 1979, dated 1984).
Converted amounts (≈) assume the structure as drawn. Counter-ions that a name gives are not always drawn. Like-named read-outs stand apart in the source and are kept apart here.

Legend:
Experiment in all cases: MIC in agar
Type in all cases: cell-based
Bacillus subtilis A = conditions: for MIC: Bacillus subtilis
Source text: (§1) a. Antibacterial effectiveness of compounds of
(§2) Examples 6 and 7 in agar.
(§3) (μg/ml) in agar of compound

Citrobacter freundii E8 = tested on: Citrobacter freundii E8
Source text: as §1, §2, §3

Enterobacter cloacae N1 = tested on: Enterobacter cloacae N1
Source text: as §1, §2, §3

Escherichia coli 0111 = tested on: Escherichia coli 0111
Source text: as §1, §2, §3

Escherichia coli JT39 = tested on: Escherichia coli JT39
Source text: as §1, §2, §3

Klebsiella aerogenes A = tested on: Klebsiella aerogenes A
Source text: as §1, §2, §3

Proteus mirabilis C977 = tested on: Proteus mirabilis C977
Source text: as §1, §2, §3

Proteus morganii 1580 = conditions: for MIC: Morganella morganii
Source text: as §1, §2, §3

Proteus rettgeri WM16 = conditions: for MIC: Providencia rettgeri
Source text: as §1, §2, §3

Proteus vulgaris W091 = tested on: Proteus vulgaris W091
Source text: as §1, §2, §3

Pseudomonas aeruginosa A = tested on: Pseudomonas aeruginosa A
Source text: as §1, §2, §3

[1] = tested on: Salmonella typhimurium CT10; conditions: for MIC: Salmonella enterica
Source text: as §1, §2, §3

Serratia marcescens US20 = tested on: Serratia marcescens US20
Source text: as §1, §2, §3

Shigella sonnei MB 11967 = conditions: for MIC: MB11967
Source text: as §1, §2, §3

[2] = tested on: Staphylococcus aureus 1517
Source text: as §1, §2, §3

[3] = tested on: Staphylococcus aureus Oxford
Source text: as §1, §2, §3

[4] = tested on: Staphylococcus aureus Russell
Source text: as §1, §2, §3

Streptococcus faecalis I = conditions: for MIC: Enterococcus faecalis
Source text: as §1, §2, §3

[5] = tested on: Streptococcus pyogenes CN10
Source text: as §1, §2, §3

E. coli ESS = conditions: Escherichia coli
Source text: | (μg/ml) in agar of compound

[6] = in agar, Citrobacter freundii E8, read-out: M.I.C.
[7] = in agar, Enterobacter cloacae N1, read-out: M.I.C.
[8] = in agar, Escherichia coli JT39, read-out: M.I.C.
[9] = in agar, Klebsiella aerogenes A, read-out: M.I.C.
[10] = in agar, Proteus mirabilis C977, read-out: M.I.C.
[11] = in agar, Proteus morganii 1580, read-out: M.I.C.
[12] = in agar, Proteus rettgeri WM16, read-out: M.I.C.
[13] = in agar, Proteus vulgaris W091, read-out: M.I.C.
[14] = in agar, Pseudomonas aeruginosa A, read-out: M.I.C.
[15] = in agar, Salmonella typhimurium CT10, read-out: M.I.C.
[16] = in agar, Serratia marcescens US20, read-out: M.I.C.
[17] = in agar, Staphylococcus aureus 1517, read-out: M.I.C.
[18] = in agar, Staphylococcus aureus Oxford, read-out: M.I.C.
[19] = in agar, Staphylococcus aureus Russell, read-out: M.I.C.
[20] = in agar, Streptococcus faecalis I, read-out: M.I.C.

SMILES | MIC (Bacillus subtilis A) | MIC (Escherichia coli 0111) | MIC (Shigella sonnei MB 11967) | MIC (Citrobacter freundii E8; [6]) | MIC (Enterobacter cloacae N1; [7]) | MIC (Escherichia coli JT39; [8]) | MIC (Klebsiella aerogenes A; [9]) | MIC (Proteus mirabilis C977; [10]) | MIC (Proteus morganii 1580; [11]) | MIC (Proteus rettgeri WM16; [12]) | MIC (Proteus vulgaris W091; [13]) | MIC (Pseudomonas aeruginosa A; [14]) | MIC [1, 15] | MIC (Serratia marcescens US20; [16]) | MIC [2, 17] | MIC [3, 18] | MIC [4, 19] | MIC (Streptococcus faecalis I; [20]) | MIC (E. coli ESS) | other results
CSC1=C(C(=O)[O-])N2C(=O)[C@H]([C@H](C)O)[C@H]2C1.[Na+] [Example 6, Sodium (5R, 6S)-3-methylthio-6-[(S)-1-hydroxyethyl]-7-oxo-1-azabicyclo[3.2.0]hept-2-ene-2-carboxylate] | 25 mg/L | 12.5 mg/L | 12.5 mg/L |  |  |  |  |  |  |  |  |  |  |  |  |  |  |  |  | MIC (Citrobacter freundii E8; Citrobacter freundii, E8): 12.5 mg/L; MIC (Enterobacter cloacae N1; Enterobacter cloacae, N1): 28 mg/L; MIC (Escherichia coli JT39; Escherichia coli, JT39): 12.5 mg/L; MIC (Klebsiella aerogenes A; Klebsiella aerogenes): 12.5 mg/L; MIC (Proteus mirabilis C977; Proteus mirabilis, C977): 50 mg/L; MIC (Proteus morganii 1580; 1580): 25 mg/L; MIC (Proteus rettgeri WM16; WM16): 25 mg/L; MIC (Proteus vulgaris W091; Proteus vulgaris, W091): 25 mg/L; MIC (Pseudomonas aeruginosa A; Pseudomonas aeruginosa): > 100 mg/L; MIC ([1]; TYPHIMURIUM): 12.5 mg/L; MIC (Serratia marcescens US20; Serratia marcescens, US20): 12.5 mg/L; MIC ([2]; Staphylococcus aureus, 1517): 100 mg/L; MIC ([3]; Staphylococcus aureus): 3.1 mg/L; MIC ([4]; Staphylococcus aureus): 6.2 mg/L; MIC (Streptococcus faecalis I): > 100 mg/L; MIC ([5]; Streptococcus pyogenes, CN10): 25 mg/L
C[C@H](O)[C@H]1C(=O)N2C(C(=O)O)=C(S/C=C\C(=O)OCCN)C[C@H]12 [Example 18, (5R,6S)-3-[2-(Z)-(2-Aminoethoxycarbonyl)ethenylthio]-6-[(S)-1-hydroxyethyl]-7-oxo-1-azabicyclo[3.2.0]hept-2-ene-2-carboxylic acid] |  | 3.1 mg/L (≈ 9.05 µM) | 3.1 mg/L (≈ 9.05 µM) | 3.1 mg/L (≈ 9.05 µM) | 3.1 mg/L (≈ 9.05 µM) | 3.1 mg/L (≈ 9.05 µM) | 3.1 mg/L (≈ 9.05 µM) | 12.5 mg/L (≈ 36.5 µM) | 3.1 mg/L (≈ 9.05 µM) | 6.2 mg/L (≈ 18.1 µM) | 6.2 mg/L (≈ 18.1 µM) | 25 mg/L (≈ 73 µM) | 3.1 mg/L (≈ 9.05 µM) | 1.2 mg/L (≈ 3.5 µM) | 6.2 mg/L (≈ 18.1 µM) | ≤ 0.1 mg/L | 0.4 mg/L (≈ 1.17 µM) | 12.5 mg/L (≈ 36.5 µM) | 1 mg/L (≈ 2.92 µM) | MIC ([5]; in agar, Streptococcus pyogenes CN10, read-out: M.I.C.): ≤ 0.1 mg/L
C[C@H](OS(=O)(=O)O)[C@@H]1C(=O)N2C(C(=O)O)=C(S/C=C\C(=O)O)C[C@H]12 [Example 22, The Trisodium salt of (5R,6R)-3-[(Z)-2-carboxyethenylthio]-6-[(S)-1-hydroxysulphonyloxyethyl]-7-oxo-1-azabicyclo[3.2.0]hept-2-ene-2-carboxylic acid] | 0.5 mg/L | 1.2 mg/L | 1.2 mg/L | 25 mg/L | 0.5 mg/L | 1.2 mg/L | 1.2 mg/L | 1.2 mg/L | 0.5 mg/L | 1.2 mg/L | 1.2 mg/L | > 50 mg/L | 1.2 mg/L | 5 mg/L | 25 mg/L | 2.5 mg/L | 2.5 mg/L | 12.5 mg/L | 1.2 mg/L | 
CCSC1=C(C(=O)[O-])N2C(=O)[C@H]([C@H](C)O)[C@H]2C1.[Na+] [Example 7] |  |  |  |  |  |  |  |  |  |  |  |  |  |  |  |  |  |  |  | M.I.C. (Bacillus subtilis A; in agar, Bacillus subtilis A): 5.0 µg/mL; M.I.C. (Citrobacter freundii E8; in agar, Citrobacter freundii E8): 2.5 µg/mL; M.I.C. (Enterobacter cloacae N1; in agar, Enterobacter cloacae N1): 5.0 µg/mL; M.I.C. (Escherichia coli 0111): 5.0 µg/mL; M.I.C. (Escherichia coli JT39; in agar, Escherichia coli JT39): 2.5 µg/mL; M.I.C. (Klebsiella aerogenes A; in agar, Klebsiella aerogenes A): 2.5 µg/mL; M.I.C. (Proteus mirabilis C977; in agar, Proteus mirabilis C977): 12.5 µg/mL; M.I.C. (Proteus morganii 1580; in agar, Proteus morganii 1580): 2.5 µg/mL; M.I.C. (Proteus rettgeri WM16; in agar, Proteus rettgeri WM16): 5.0 µg/mL; M.I.C. (Proteus vulgaris W091; in agar, Proteus vulgaris W091): 5.0 µg/mL; M.I.C. (Pseudomonas aeruginosa A; in agar, Pseudomonas aeruginosa A): > 50 µg/mL; M.I.C. ([1]; in agar, Salmonella typhimurium CT10): 2.5 µg/mL; M.I.C. (Serratia marcescens US20; in agar, Serratia marcescens US20): 5.0 µg/mL; M.I.C. (Shigella sonnei MB 11967): 5.0 µg/mL; M.I.C. ([3]; in agar, Staphylococcus aureus Oxford): 1.2 µg/mL; M.I.C. ([4]; in agar, Staphylococcus aureus Russell): 1.2 µg/mL; M.I.C. (Streptococcus faecalis I; in agar, Streptococcus faecalis I): > 50 µg/mL; M.I.C. ([5]; in agar, Streptococcus pyogenes CN10): 1.2 µg/mL
